Laboratory results published in patent publication US20150136167A1, “METHOD OF TREATING HAIR” (priority 2012, published 2015).

Experiments:
[1] = Solubility of actives at the 5% level; type: physicochemical
[2] = Hair straightening on dry hair switches (volume of switch image), Experiments 1 and 4
Description: Dark brown European wavy#6 switches of length 25 cm and weight 2 gms, were dosed with 2 ml each of 5% citric acid solutions at various pH's. They were combed straight and left to dry for at least 20 minutes. They were subsequently rinsed for 30 seconds under the tap. They were then combed straight and left to dry overnight. When dry the switches were combed straight and pictures taken. […] (Here volume refers to the projection of the switch image on to the screen and is given in mm^2).

[3] = Hair straightening with application to wet hair, Experiment 3
[4] = 5% solution at pH 2, 2 ml dosed on dry switch, left at least 20 min, rinsed, combed, dried overnight
[5] = 5% solution at pH 2, dosed on dry switch
[6] = 5% solution at pH 3, dosed on dry switch
[7] = 5% solution at pH 4, dosed on dry switch
[8] = 5% solution at pH 5, dosed on dry switch
[9] = 5% solution at pH 6, dosed on dry switch

For `O=C(O)/C=C/C(=O)O` [Fumaric acid], the “solubility at the 5% level” value [1] was “not soluble at the 5% level”.

In the case of `O=C(O)CC(O)C(=O)O` (stereo not drawn) [Malic acid], the “Volume in mm^2” value [2, 4] is reported as 12426 mm^2 and the “% benefit over water” value [2, 5] is reported as 13.0%.

In the case of `O=C(O)CC(=O)O` [Malonic acid], the “Volume in mm^2” value [2, 4] is reported as 11220 mm^2, the “% benefit over water” value [2, 5] is reported as 21.4% and the “% benefit over water” value [2, 6] is reported as 16.3%. For the same molecule, the “Volume in mm^2” value [2, 6] was 11950 mm^2.

With `O=C(O)C(O)c1ccccc1` (stereo not drawn) [Mandelic acid, reference compound] the “Volume in mm^2” value [2, 4] was 13545 mm^2 and the “% benefit over water” value [2, 5] was 5.1%.

For `O=C(O)C(=O)O` [Oxalic acid], the “Volume in mm^2” value [2, 4] was 13419 mm^2 and the “% benefit over water” value [2, 5] was 6.0%.

In the case of `O=C(O)CC(O)(CC(=O)O)C(=O)O` [citric acid], the “Volume in mm^2” value [2, 4] is reported as 9481 mm^2, the “% benefit over water” value [2, 5] is reported as 33.6% and the “% benefit over water” value [2, 6] is reported as 32.9%. The “Volume in mm^2” value [2, 6] was 9574 mm^2, the “% benefit over water” value [2, 7] was 17.9% and the “Volume in mm^2” value [2, 7] was 11717 mm^2. For the same molecule, the “% benefit over water” value [2, 8] was 23.9%, the “Volume in mm^2” value [2, 8] was 10871 mm^2 and the “% benefit over water” value [2, 9] was 15.0%. For the same molecule, the “Volume in mm^2” value [2, 9] was 12136 mm^2, the “straightening benefit compared with the results with dry hair” value ([3]; 5% solution at pH 2 applied to wet hair) was “significantly reduced” and the “straightening benefit compared with the results with dry hair” value ([3]; 5% solution at pH 3 applied to wet hair) was “significantly reduced”.

In the case of `O=C(O)/C=C(\CC(=O)O)C(=O)O` [trans Aconitic acid], the “Volume in mm^2” value [2, 4] is reported as 8456 mm^2, the “% benefit over water” value [2, 5] is reported as 40.8% and the “% benefit over water” value [2, 6] is reported as 17.3%. For the same molecule, the “Volume in mm^2” value [2, 6] was 11812 mm^2.
